pIC50: −log10 of the molar value.
molecular target: T1, hMCH-1R (Homo sapiens, UniProt Q99705); experiment: MCH-1 receptor binding test (125I-MCH binding to membranes of hMCH-1R transfected CHO/Galpha16 cells); details: displacement of 125I-MCH, hMCH-1R CHO/Galpha16 membranes
T1 construct: expressed in transfected cells
Method: MCH-1 Receptor Binding Test
Method: MCH binding to hMCH-1R transfected cells
Test cell: hMCH-1R stably transfected into CHO/Galphal 6 cells
Membranes from CHO/Galphal6 cells stably transfected with human hMCH-1R are resuspended using a syringe (needle 0.6×25 mm) and diluted in test buffer (50 mM HEPES, 10 mM MgCl2, 2 mM EGTA, pH 7.00; 0.1% bovine serum albumin (protease-free), 0.021% bacitracin, 1 μg/ml aprotinin, 1 μg/ml leupeptin and 1 μM phosphoramidone) to a concentration of 5 to 15 μg/ml.
After the incubation the reaction is filtered using a cell harvester through 0.5% PEI treated fibreglass filters (GF/B, Unifilter Packard). The membrane-bound radioactivity retained on the filter is then determined after the addition of scintillator substance (Packard Microscint 20) in a measuring device (TopCount of Packard).
The non-specific binding is defined as bound radioactivity in the presence of 1 micromolar MCH during the incubation period.
The analysis of the concentration binding curve is carried out on the assumption of one receptor binding site.

T1 sequence (Q99705 whole entry): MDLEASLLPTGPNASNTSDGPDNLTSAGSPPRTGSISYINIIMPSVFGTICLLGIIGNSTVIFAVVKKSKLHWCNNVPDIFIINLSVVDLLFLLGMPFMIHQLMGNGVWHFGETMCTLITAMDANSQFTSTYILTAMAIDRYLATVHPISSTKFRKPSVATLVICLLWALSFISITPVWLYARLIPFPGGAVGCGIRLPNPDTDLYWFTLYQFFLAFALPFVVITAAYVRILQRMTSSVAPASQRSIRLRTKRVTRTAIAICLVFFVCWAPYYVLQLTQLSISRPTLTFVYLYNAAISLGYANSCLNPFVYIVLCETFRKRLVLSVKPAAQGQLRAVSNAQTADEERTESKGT

pIC50 | SMILES
7.10 | COc1ccc(-c2ccc(CCCNc3ccc(CN4CCC(NC(C)=O)C4)cc3)nn2)cc1 (centres unmarked) [Example 3.30, N-[1-(4-{3-[6-(4-Methoxy-phenyl)-pyridazin-3-yl]-propylamino}-benzyl)-pyrrolidin-3-yl]-acetamide]
6.76 | COc1ccc(-c2ccc(NCCCc3ccc(CN4CCC(O)CC4)cc3)nn2)cc1 [Example 9.1, 1-(4-{3-[6-(4-Methoxy-phenyl)-pyridazin-3-ylamino]-propyl}-benzyl)-piperidin-4-ol]
6.76 | CCN(CC)CCOc1ccc(OCCOc2ccc(I)cc2Cl)cc1Cl [Example 12.1, (2-{2-Chloro-4-[2-(2-chloro-4-iodo-phenoxy)-ethoxy]-phenoxy}-ethyl)-diethyl-amine]

tested on: not given; experiment: not given; details: not given

SMILES | melting point [°C]
CC1CCN(Cc2ccc(NCCCc3ccc(-c4ccc(Cl)cc4)cc3)cc2)CC1 [Example 1.1, [3-(4′-Chloro-biphenyl-4-yl)-propyl]-[4-(4-methyl-piperidin-1-ylmethyl)-phenyl]-amine] | 69 to 71
CN(C)Cc1ccc(NCCCc2ccc(-c3ccc(Cl)cc3)cc2)cc1 [Example 4.1, [3-(4′-Chloro-biphenyl-4-yl)-propyl]-(4-dimethylaminomethyl-phenyl)-amine] | 85 to 90
COc1ccc(-c2ccc(CCCNc3ccc4c(c3)CN(C)CC4)nn2)cc1 [Example 19.1, {3-[6-(4-Methoxy-phenyl)-pyridazin-3-yl]-propyl}-(2-methyl-1,2,3,4-tetrahydro-isoquinolin-7-yl)-amine] | 130 to 133

Now from value to molecule:

melting point [°C] | SMILES
170 to 172 | OC1(C(F)(F)F)CCN(Cc2ccc(NCCCc3ccc(-c4ccc(Cl)cc4)cc3)nc2)CC1 [Example 5.1]
200 to 204 | Oc1ccc(-c2ccc(CCCNc3ccc(CN4CCC(O)(C(F)(F)F)CC4)cc3)nn2)cc1 [Example 21.1]

Source: patent US20070111981A1, “New (hetero)aryl compounds with MCH antagonistic activity and medicaments comprising these compounds” (priority 2005, published 2007)
